# Data from ChEMBL document CHEMBL5352423, “Discovery of potent human dihydroorotate dehydrogenase inhibitors based on a benzophenone scaffold” (Eur J Med Chem, 2022).
# Activity calls are given as the source filed them. The rule behind the calls is not given here.
# Experiments:
# [1] = biological target: T1, Dihydroorotate dehydrogenase (quinone), mitochondrial (Homo sapiens, UniProt Q02127); experiment: Inhibition of human DHODH at 1 uM for 30 mins relative to control
# [2] = biological target: T1, Dihydroorotate dehydrogenase (quinone), mitochondrial; experiment: Inhibition of human DHODH at 100 nM for 30 mins relative to control
# [3] = biological target: T1, Dihydroorotate dehydrogenase (quinone), mitochondrial; experiment: Inhibition of human DHODH incubated for 30 mins
# [4] = Aqueous solubility of compound; assay type: physicochemical; conditions: buffer
# [5] = Lipophilicity, logP of compound; assay type: physicochemical; conditions: octanol/water
# Raji [6] = experiment: Antiproliferative activity against human Raji cells incubated for 96 hrs by MTT assay; assay type: functional, cell-based
# HCT-116 [7] = experiment: Antiproliferative activity against human HCT-116 cells incubated for 96 hrs by MTT assay; assay type: functional, cell-based; conditions: HCT-116, 96 h
# A-375 = experiment: Antiproliferative activity against human A-375 cells incubated for 96 hrs by MTT assay; assay type: functional, cell-based; conditions: A-375, 96 h
# Kasumi 1 = experiment: Antiproliferative activity against human Kasumi 1 cells incubated for 96 hrs by MTT assay; assay type: functional, cell-based; conditions: Kasumi 1, 96 h
# KG-1 = experiment: Antiproliferative activity against human KG-1 cells incubated for 96 hrs by MTT assay; assay type: functional, cell-based; conditions: KG-1, 96 h
# SUD4 = experiment: Antiproliferative activity against human SU-DHL-4 cells incubated for 96 hrs by MTT assay; assay type: functional, cell-based; conditions: SU-DHL-4, 96 h
# U-937 = experiment: Antiproliferative activity against human U-937 cells incubated for 96 hrs by MTT assay; assay type: functional, cell-based; conditions: U-937, 96 h
# [8] = Cytotoxicity against human HL7702 cells incubated for 96 hrs by MTT assay; assay type: toxicity, cell-based, L02
# [9] = Cytotoxicity against human NCM460 cells incubated for 96 hrs by MTT assay; assay type: toxicity, cell-based
# [10] = Cytotoxicity against human HCoEpiC cells incubated for 96 hrs by MTT assay; assay type: toxicity, cell-based
# [11] = Selectivity index ratio of IC50 for human HL7702 cells to IC50 for human Raji cells; assay type: toxicity; conditions: HL7702 cells and Raji cells, read-out: Ratio IC50
# [12] = biological target: Voltage-gated inwardly rectifying potassium channel KCNH2 (Homo sapiens, UniProt Q12809); experiment: Inhibition of human ERG; assay type: toxicity
# Sequence of Voltage-gated inwardly rectifying potassium channel KCNH2 (Q12809 whole entry): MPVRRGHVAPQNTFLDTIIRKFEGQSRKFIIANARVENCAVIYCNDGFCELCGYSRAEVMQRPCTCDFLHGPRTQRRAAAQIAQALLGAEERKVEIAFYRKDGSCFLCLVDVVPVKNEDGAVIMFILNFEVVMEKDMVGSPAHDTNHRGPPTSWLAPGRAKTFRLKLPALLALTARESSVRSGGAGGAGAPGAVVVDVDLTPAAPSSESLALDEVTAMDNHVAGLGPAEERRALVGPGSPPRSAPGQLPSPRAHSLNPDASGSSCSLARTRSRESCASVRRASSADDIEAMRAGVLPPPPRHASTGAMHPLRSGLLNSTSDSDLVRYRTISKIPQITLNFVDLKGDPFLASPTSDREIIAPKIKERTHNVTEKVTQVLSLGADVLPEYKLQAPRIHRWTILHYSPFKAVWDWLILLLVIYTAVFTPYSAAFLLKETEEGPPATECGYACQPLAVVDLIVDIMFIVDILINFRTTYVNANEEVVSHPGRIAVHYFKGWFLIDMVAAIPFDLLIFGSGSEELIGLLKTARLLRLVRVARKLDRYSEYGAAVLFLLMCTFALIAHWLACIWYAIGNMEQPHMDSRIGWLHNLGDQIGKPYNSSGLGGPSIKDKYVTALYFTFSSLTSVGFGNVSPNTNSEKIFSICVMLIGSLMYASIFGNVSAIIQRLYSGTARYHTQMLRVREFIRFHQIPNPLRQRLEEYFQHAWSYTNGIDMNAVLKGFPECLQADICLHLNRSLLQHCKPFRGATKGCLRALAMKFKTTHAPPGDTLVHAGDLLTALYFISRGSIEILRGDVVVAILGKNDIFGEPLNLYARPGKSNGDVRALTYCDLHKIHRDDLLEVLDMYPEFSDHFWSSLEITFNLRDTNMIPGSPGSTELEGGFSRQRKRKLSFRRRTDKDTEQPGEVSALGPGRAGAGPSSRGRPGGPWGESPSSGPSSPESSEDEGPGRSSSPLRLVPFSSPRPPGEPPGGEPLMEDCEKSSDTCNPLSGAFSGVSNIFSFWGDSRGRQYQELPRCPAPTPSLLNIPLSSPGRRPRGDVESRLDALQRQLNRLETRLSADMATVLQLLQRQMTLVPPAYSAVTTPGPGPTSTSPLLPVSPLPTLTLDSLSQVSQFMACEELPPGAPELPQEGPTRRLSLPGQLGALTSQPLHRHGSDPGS
# Raji [13] = experiment: Antiproliferative activity against human Raji cells assessed as inhibition of cell growth at 0.0125 uM relative to control; assay type: functional
# Raji [14] = experiment: Antiproliferative activity against human Raji cells assessed as inhibition of cell growth at 0.025 uM relative to control; assay type: functional
# Raji [15] = experiment: Antiproliferative activity against human Raji cells assessed as inhibition of cell growth at 0.05 uM relative to control; assay type: functional
# Raji [16] = experiment: Antiproliferative activity against human Raji cells assessed as inhibition of cell growth at 0.1 uM relative to control; assay type: functional
# Raji [17] = experiment: Antiproliferative activity against human Raji cells assessed as inhibition of cell growth at 0.2 uM relative to control; assay type: functional
# Raji [18] = experiment: Antiproliferative activity against human Raji cells assessed as inhibition of cell growth; assay type: functional, cell-based; conditions: dose 0.0125-0.2 µM
# Raji [19] = experiment: Rescue of cell viability in human Raji cells assessed cell growth inhibition rate at 0.0125 to 0.2 uM in presence of uridine; assay type: functional; conditions: dose 0.0125-0.2 µM
# HCT-116 [20] = experiment: Antiproliferative activity against human HCT-116 cells assessed as inhibition of cell growth at 0.0125 to 0.2 uM; assay type: functional, cell-based; conditions: dose 0.0125-0.2 µM
# Raji [21] = experiment: Induction of cell cycle arrest in human Raji cells assessed as accumulation cells in S-phase at 0.0625 uM for 24 hrs by PI/RNAse staining method (reference value: 42.8%); assay type: functional
# Raji [22] = experiment: Induction of cell cycle arrest in human Raji cells assessed as accumulation cells in S-phase at 0.125 uM for 24 hrs by PI/RNAse staining method (reference value: 42.8%); assay type: functional
# Raji [23] = experiment: Induction of cell cycle arrest in human Raji cells assessed as accumulation cells in S-phase at 0.25 uM for 24 hrs by PI/RNAse staining method (reference value: 42.8%); assay type: functional
# HCT-116 [24] = experiment: Induction of cell cycle arrest in human HCT-116 cells assessed as accumulation cells in S-phase at 0.0625 uM for 24 hrs by PI/RNAse staining method (reference value: 30.2%); assay type: functional
# HCT-116 [25] = experiment: Induction of cell cycle arrest in human HCT-116 cells assessed as accumulation cells in S-phase at 0.125 uM for 24 hrs by PI/RNAse staining method (reference value: 30.2%); assay type: functional
# HCT-116 [26] = experiment: Induction of cell cycle arrest in human HCT-116 cells assessed as accumulation cells in S-phase at 0.25 uM for 24 hrs by PI/RNAse staining method (reference value: 30.2%); assay type: functional
# [27] = Toxicity in BALB/c mouse assessed as lethal dose administered orally for 14 days; conditions: in vivo, route po, time 14 day
# [28] = Toxicity in BALB/c mouse assessed as change in blood neutrophil administered at 500 mg/kg, po for 14 days; assay type: organism-based; conditions: in vivo, 336 h, time 14 day
# [29] = Toxicity in BALB/c mouse assessed as change in blood lymphocytes administered at 500 mg/kg, po for 14 days; assay type: organism-based, Lymphocyte; conditions: in vivo, 336 h, time 14 day
# [30] = Toxicity in BALB/c mouse assessed as change in blood RBC administered at 500 mg/kg, po for 14 days; assay type: organism-based; conditions: in vivo, 336 h, time 14 day
# [31] = Toxicity in BALB/c mouse assessed as change in blood HGB administered at 500 mg/kg, po for 14 days; assay type: organism-based; conditions: in vivo, 336 h, time 14 day
# [32] = Toxicity in BALB/c mouse assessed as change in blood HCT administered at 500 mg/kg, po for 14 days; assay type: organism-based; conditions: in vivo, 336 h, time 14 day
# [33] = Toxicity in BALB/c mouse assessed as change in blood MCV administered at 500 mg/kg, po for 14 days; assay type: organism-based; conditions: in vivo, 336 h, time 14 day
# [34] = Toxicity in BALB/c mouse assessed as change in blood MCH administered at 500 mg/kg, po for 14 days; assay type: organism-based; conditions: in vivo, 336 h, time 14 day
# [35] = Toxicity in BALB/c mouse assessed as change in blood MCHC administered at 500 mg/kg, po for 14 days; assay type: organism-based; conditions: in vivo, 336 h, time 14 day
# [36] = Toxicity in BALB/c mouse assessed as change in blood RDW administered at 500 mg/kg, po for 14 days; assay type: organism-based; conditions: in vivo, 336 h, time 14 day
# [37] = Toxicity in BALB/c mouse assessed as change in blood PLT administered at 500 mg/kg, po for 14 days; assay type: organism-based; conditions: in vivo, 336 h, time 14 day
# [38] = Toxicity in BALB/c mouse assessed as change in blood MPV administered at 500 mg/kg, po for 14 days; assay type: organism-based; conditions: in vivo, 336 h, time 14 day
# [39] = Toxicity in BALB/c mouse assessed as change in blood WBC administered at 500 mg/kg, po for 14 days; assay type: organism-based; conditions: in vivo, 336 h, time 14 day
# [40] = Toxicity in BALB/c mouse assessed as decrease in alkaline phosphatase administered at 500 mg/kg, po for 14 days; assay type: organism-based; conditions: in vivo, 336 h, time 14 day
# [41] = Toxicity in BALB/c mouse assessed as histopathological changes in liver administered at 500 mg/kg, po for 14 days; assay type: organism-based; conditions: in vivo, 336 h, time 14 day
# [42] = Toxicity in BALB/c mouse assessed as histopathological changes in spleen administered at 500 mg/kg, po for 14 days; assay type: organism-based; conditions: in vivo, 336 h, time 14 day
# [43] = Toxicity in BALB/c mouse assessed as histopathological changes in lung administered at 500 mg/kg, po for 14 days; assay type: organism-based; conditions: in vivo, 336 h, time 14 day
# [44] = Toxicity in BALB/c mouse assessed as histopathological changes in kidney administered at 500 mg/kg, po for 14 days; assay type: organism-based; conditions: in vivo, 336 h, time 14 day
# Raji [45] = experiment: Antitumor activity against human Raji cells xenografted in NOD-SCID mouse assessed as tumor growth inhibition at 30 mg/kg, po administered for 24 days relative to control; assay type: functional; conditions: 576 h, time 24 day, read-out: TGI
# [46] = Toxicity in NOD-SCID mouse xenografted with human Raji cells assessed as change in body weight at 30 mg/kg, po administered for 24 days; assay type: organism-based; conditions: in vivo, 576 h, time 24 day
# [47] = Toxicity in NOD-SCID mouse xenografted with human Raji cells assessed as death at 30 mg/kg, po administered for 24 days; assay type: organism-based; conditions: in vivo, 576 h, time 24 day
# HCT-116 [48] = experiment: Antitumor activity against human HCT-116 cells xenografted in NOD-SCID mouse assessed as tumor growth inhibition at 30 mg/kg, po administered for 24 days relative to control; assay type: functional; conditions: HCT-116, 576 h, time 24 day, read-out: TGI
# T1 sequence (Q02127 whole entry): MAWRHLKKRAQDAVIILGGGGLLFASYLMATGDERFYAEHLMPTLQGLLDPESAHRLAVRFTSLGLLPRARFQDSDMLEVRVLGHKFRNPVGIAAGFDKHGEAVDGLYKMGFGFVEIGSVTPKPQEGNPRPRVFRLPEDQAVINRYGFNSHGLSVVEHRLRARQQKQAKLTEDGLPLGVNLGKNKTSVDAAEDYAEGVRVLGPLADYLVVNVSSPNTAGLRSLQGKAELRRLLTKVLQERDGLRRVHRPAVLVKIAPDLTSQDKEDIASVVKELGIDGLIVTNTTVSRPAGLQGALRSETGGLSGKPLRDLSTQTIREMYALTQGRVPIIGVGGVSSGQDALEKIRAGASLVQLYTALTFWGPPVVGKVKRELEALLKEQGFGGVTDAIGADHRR
smiles,measurement,setting,value
C/C(O)=C(\C#N)C(=O)Nc1cc(O[C@@H](C)C(F)(F)F)c(C(=O)c2ccccc2Cl)cc1F,inhibition,[1],98.4%
same,inhibition,[2],84.2%
same,IC50,[3],10.9 nM
same,solubility,[4],61.7 µg/mL
same,logP,[5],2.49
same,IC50,Raji [6],60 nM
same,IC50,HCT-116 [7],140 nM
same,IC50,A-375,250 nM
same,IC50,Kasumi 1,100 nM
same,IC50,KG-1,430 nM
same,IC50,SUD4,750 nM
same,IC50,U-937,220 nM
same,IC50 at 96 h,[8],1100 nM
same,IC50 at 96 h,[9],14200 nM
same,IC50 at 96 h,[10],6800 nM
same,selectivity ratio,[11],18.3
same,IC50,[12],> 100000 nM
same,inhibition at 0.0125 µM,Raji [13],17%
same,inhibition at 0.025 µM,Raji [14],20.7%
same,inhibition at 0.05 µM,Raji [15],36.8%
same,inhibition at 0.1 µM,Raji [16],52.2%
same,inhibition at 0.2 µM,Raji [17],60.9%
same,inhibition,Raji [18],Dose-Dependent Effect
same,inhibition (INH),Raji [19],<5%
same,Activity,HCT-116 [20],Active
same,Activity,Raji [21],54.2%
same,Activity,Raji [22],60.6%
same,Activity,Raji [23],67.1%
same,Activity,HCT-116 [24],44.6%
same,Activity,HCT-116 [25],58.9%
same,Activity,HCT-116 [26],60.6%
same,LD50 at 336 h,[27],500 mg/kg
same,Activity,[28],Non-Toxic
same,Activity,[29],Non-Toxic
same,Activity,[30],Non-Toxic
same,Activity,[31],Non-Toxic
same,Activity,[32],Non-Toxic
same,Activity,[33],Non-Toxic
same,Activity,[34],Non-Toxic
same,Activity,[35],Non-Toxic
same,Activity,[36],Non-Toxic
same,Activity,[37],Non-Toxic
same,Activity,[38],Non-Toxic
same,Activity,[39],Non-Toxic
same,Activity,[40],Non-Toxic
same,Activity,[41],Toxic
same,Activity,[42],Non-Toxic
same,Activity,[43],Non-Toxic
same,Activity,[44],Non-Toxic
same,inhibition in vivo at 30 mg/kg,Raji [45],58.3%
same,Activity,[46],Non-Toxic
same,Activity,[47],Non-Toxic
same,inhibition in vivo at 30 mg/kg,HCT-116 [48],42.1%
